The values that follow come from patent US6537553B1, “Leukosialin: Ig fusion proteins” (La Jolla Cancer Research Foundation, priority 1993, dated 2003).

In assay [1] the target is mouse E-selectin on IL-1β-activated mouse tEnd.1 endothelioma cells (mouse) (UniProt Q00690). The assay is described as follows: cell-based or functional assay.
Assay [2] relates to activated mouse tEnd.1 cells (E-selectin mediated adhesion). The assay is described as follows: Inhibition of adhesion of SM colonic carcinoma cells to IL-1β-activated mouse tEnd.1 endothelial cell monolayers. It is filed as cell-based. Conditions: for inhibition of adhesion of SM cells to activated mouse tEnd.1 cells: IL-1β-activated tEnd.1 monolayers, result in words (FIG. 4, 5A, 5B). From the text: The mouse endothelioma cell lines, eEnd.2, sEnd.1, tEnd.1, and bEnd.4 were kindly provided by Dr. R. Lindsay Williams at the Ludwig Institute for Cancer Research, […], Austria. These cell lines, originally derived from a subcutaneous (sEnd.1), thymic (tEnd.1), embryonal (eEnd.2), and brain (bEnd.4) hemangliomas produced in transgenic mice expressing polyoma middle T antigen (Williams et al., Cell 52:121-131 (1988)). The cells were maintained in Dulbecco's modified Eagle's medium containing 10% fetal calf serum. Mouse endothelioma cell lines were cultured in 96-well tissue culture plates and activated with 10 units/ml IL-1β (Sigma) and then washed with Dulbecco's modified Eagle's medium containing 5% fetal calf serum before the colonic carcinoma cells were added. As the control, non-activated mouse endothelial cells were prepared identically and used in parallel for the adhesion assays. The adhesion and inhibition of the adhesion by soluble lamp-1 and soluble leukosialin were carried out exactly as described previously (Sawada et al., supra).
Inhibition by sialyl Le^x-positive glycolipid, NeuNAcα2→3Galβ1→4-(Fucα1→3)GlcNAcβ1→3Galβ1→4Glc→Cer was tested after the glycolipid was incorporated into liposomes (Phillips et al., Science 250:1130-1132 (1990)). Paragloboside, NeuNAcα2→3Galβ1→4GlcNAcβ1→3Galβ1→4Glc→Cer was used as a control glycolipid. Sialyl Le^x glycolipid (Kameyama et al., Carbohydr. Res. 209:C1-C4 (1991)) and paragloboside were kindly provided by Drs. Akira Hasegana, Gifu University, Japan, and Michiko Fukuda at this institute, respectively. In order to determine if sialyl Le^x structure on the human colonic cells are recognized by mouse endothelial cells, the adhesion was assayed after the colonic cells were preincubated with anti-sialyl Le^x antibody (CSLEX, IgM) or mouse anti-Le^x monoclonal antibody (anti-PMN-6, IgM). The anti-PMN-6 antibody (Ball and Fanger, Blood 61:456-463 (1983)) was kindly provided by Dr. Ball of the Dartmouth Medical School.
First, the binding of the cell line with the highest adhesion efficiency was tested in the presence of a sialyl Le^x containing glycolipid. SM cells were subjected to adhesion to activated mouse tEnd.1 cells as described in Example IV (and FIG. 3) (open bar), or as in FIG. 3 after pretreatment of the activated monolayers with liposomes containing sialyl Le^x glycolipid (hatched bars), or after pretreatment with liposomes containing the control glycolipid paragloboside (cross-hatched bar). The amount of glycolipid is shown in μg/ml at the x axis. The adhesion to non-activated mouse endothelial cells is shown by the closed bar. Data correspond to the fraction of applied cells still adherent to tEnd.1 cells after washing and are mean and standard deviation from four replicate assays.
The adhesion of SM cells to activated mouse tEnd.1 cells was tested for inhibition by soluble lamp-1 (FIG. 5A) or soluble leukosialin (FIG. 5B). The inhibition by soluble lamp-1 or soluble leukosialin derived from sialyl Le^x positive CHO cells is shown by hatched bars.
Inhibition by control soluble lamp-1 or control soluble leukosialin, which were derived from sialyl Le^x negative CHO cells, is shown by cross-hatched bars. The open bar represents the control without the inhibitors while the closed bar represents the adhesion to unstimulated mouse tEnd.1 monolayers. The experiments shown in FIGS. 5A and 5B were carried out at the same time.

The subject of assay [3] is HUVEC. The settings on record: as described in Sawada et al. (1993); cited from earlier work.

Sequence of UniProt Q00690 (Q00690 22-612): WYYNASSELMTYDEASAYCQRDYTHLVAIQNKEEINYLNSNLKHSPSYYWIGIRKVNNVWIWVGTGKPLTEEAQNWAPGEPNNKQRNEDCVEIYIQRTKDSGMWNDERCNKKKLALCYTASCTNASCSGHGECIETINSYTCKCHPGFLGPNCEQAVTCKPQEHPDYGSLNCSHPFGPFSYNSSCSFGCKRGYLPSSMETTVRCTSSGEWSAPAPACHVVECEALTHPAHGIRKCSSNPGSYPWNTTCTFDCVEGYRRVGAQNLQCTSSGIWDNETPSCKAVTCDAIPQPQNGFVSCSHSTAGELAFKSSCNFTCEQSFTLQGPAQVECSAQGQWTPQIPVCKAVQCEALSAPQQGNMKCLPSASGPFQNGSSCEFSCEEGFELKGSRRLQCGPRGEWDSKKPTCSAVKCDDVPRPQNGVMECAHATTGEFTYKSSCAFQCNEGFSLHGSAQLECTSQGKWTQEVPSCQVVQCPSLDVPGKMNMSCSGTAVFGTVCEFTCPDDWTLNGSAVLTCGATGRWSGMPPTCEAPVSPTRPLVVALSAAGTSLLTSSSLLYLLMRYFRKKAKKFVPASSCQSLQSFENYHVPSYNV

With “soluble chimeric leukosialin-IgG protein, sialyl Le^x positive (from CHO-leu.C2GnT cells transfected with pSRα.s-leu.IgG and pcDNAI-Fuc.TIII) (from UniProt P16150 20-252; P01857 99-330) (Fc fusion)”, the adhesion of SM cells to mouse tEnd.1 cells, percent of control (% of control levels) in assay [1] was 30. “sialyl-Le^x-positive leukosialin: soluble leukosialin fused to human IgG1 hinge plus constant region, from CHO cells expressing core 2 GlcNAc-transferase and Fuc-TIII; carries sialyl Le^x”: the “inhibition of adhesion of SM cells to activated mouse tEnd.1 cells” value (from here on “inhibition of adhesion of SM cells”) in assay [2] (SM cells) is reported as “inhibited the adhesion of SM cells to mouse tEnd.1 cells in a concentration-dependent manner”; in assay [2] (SM cells, listed as sialyl Le^x positive leukosialin) it was “inhibited the adhesion of SM cells to mouse tEnd.1 cells in a concentration dependent manner”. The “binding of SM cells to tEnd.1 cells, relative to control levels” value in assay [2] (SM cells, activated tEnd.1, concentration not stated in text (FIG. 5B)) was 30 % of control levels. As for “NeuNAcα2→3Galβ1→4-(Fucα1→3)GlcNAcβ1→3Galβ1→4Glc→Cer [sialyl Le^x glycolipid, reference compound]”, the “inhibition of adhesion of SM cells” value in assay [2] (SM cells) is “inhibited by liposomes containing sialyl Le^x glycolipid in a dose-dependent manner”. The “inhibition of adhesion to mouse cells compared with human endothelial cells” value in assay [2] (same carcinoma cells, same conditions, mouse vs human endothelial cells) is listed as “not as effective as the inhibition of the same carcinoma cells to human endothelial cells”. For “sialyl-Le^x-negative leukosialin: soluble leukosialin IgG chimeric protein lacking the sialyl-Le^x determinant, from control CHO cells without Fuc-TIII vector [reference compound]”, the “inhibition of adhesion of SM cells” value in assay [2] (SM cells) is on record as “inhibited the binding minimally”; in assay [2] (SM cells, listed as soluble sialyl Le^x negative leukosialin) it was “inhibited binding only minimally”. Turning to “NeuNAcα2→3Galβ1→4GlcNAcβ1→3Galβ1→4Glc→Cer [sialyl paragloboside, reference compound]”, in assay [2] (SM cells), the “inhibition of adhesion of SM cells” value is recorded as “did not inhibit the adhesion even at high concentrations”.

B1: soluble lamp-1 containing the sialyl Le^x: soluble form of lysosomal membrane glycoprotein-1 from CHO cells co-transfected with Fuc-TIII vector; carries sialyl Le^x (protein)
chain: AMFMVKNGNGTACIMANFSAAFSVNYDTKSGPKNMTFDLPSDATVVLNRSSCGKENTSDPSLVIAFGRGHTLTLNFTRNATRYSVQLMSFVYNLSDTHLFPNASSKEIKTVESITDIRADIDKKYRCVSGTQVHMNNVTVTLHDATIQAYLSNSSFSRGETRCEQDRPSPTTAPPAPPSPSPSPVPKSPSVDKYNVSGTNGTCLLASMGLQLNLTYERKDNTTVTRLLNINPNKTSASGSCGAHLVTLELHSEGTTVLLFQFGMNASSSRFFLQGIQLNTILPDARDPAFKAANGSLRALQATVGNSYKCNAEEHVRVTKAFSVNIFKVWVQAFKVEGGQFGSVEECLLDENSM
For B1, the “inhibition of adhesion of SM cells” value in assay [2] (SM cells) was “able to inhibit the adhesion of SM cells to activated mouse tEnd.1 cells in a dose-dependent manner”. Besides, in assay [3], the “inhibition of binding of SP-pSRαlamp-1^H cells to HUVEC” value is “inhibited the binding of the SP-pSRαlamp-1^H to HUVEC”.
